Experimental data: patent US20250326742A1, “THERAPEUTIC COMPOUNDS” (RUTGERS, THE STATE UNIVERSITY OF NEW JERSEY, priority 2024, published 2025)

What was measured:
SARS-CoV-2 PLpro = SARS-CoV-2 PLpro (Severe acute respiratory syndrome coronavirus 2, UniProt P0DTD1); experiment: biochemical; settings: 200 nM PLpro, 10 μM FRET substrate, 30 min preincubation at 30° C.
Method: FRET-Based PL^pro Enzymatic Assay
The SARS-CoV-2 PL^pro enzymatic assays were carried out as follows: The assay was assembled in 96-well plates with 100 μl of 200 nM PL^Pro protein in PL^Pro reaction buffer [50 mM Hepes (pH 7.5), 0.01% Triton X-100, and 5 mM DTT]. Then, 1 μl of testing compound at various concentrations was added to each well and incubated at 30° C. for 30 minutes. The enzymatic reaction was initiated by adding 1 μl of 1 mM FRET substrate (the final substrate concentration is 10 μM). The reaction was monitored in a Cytation 5 image reader with filters for excitation at 360/40 nm and emission at 460/40 nm at 30° C. for 1 hour. The initial velocity of the enzymatic reaction with and without testing compounds was calculated by linear regression for the first 15 minutes of the kinetic progress curve. The ICso values were calculated by plotting the initial velocity against various concentrations of testing compounds with a dose-response function in Prism 8 software.

[1] = Cytotoxicity assay in Vero E6 cells (neutral red uptake); format: cell-based; settings: African green monkey, 2 days at 37° C.
Method: (§1) Cytotoxicity Assay in Vero E6 Cells
(§2) Briefly, 80,000 cells/ml of the tested cell lines were dispensed into 96-well cell culture plates at 100 μl per well. Twenty-four hours later, the growth medium was removed and washed with 150 μl of PBS buffer. Two hundred microliters of fresh serum-free medium containing serial diluted compounds was added to each well. After incubating for 2 days at 37° C., the medium was removed and replaced with 100 μl of DMEM medium containing neutral red (40 μg/ml) and incubated for 2 to 4 hours at 37° C. The amount of neutral red taken up was determined by measuring the absorbance at 540 nm using a Multiskan FC Microplate Photometer (Thermo Fisher Scientific). The CC50 values were calculated from best-fit dose-response curves with variable slope in Prism 8.

[2] = system: SARS-CoV-2 viral replication; settings: cited from earlier work
Vero E6 cells = experiment: Cytotoxicity assay in Vero E6 cells (neutral red uptake); format: cell-based; settings: 2 days at 37° C.
Method: as §1, §2

Molecule | IC50 (SARS-CoV-2 PLpro) [µM] | CC50 at 2 days [1] [µM] | EC50 [2] [µM] | CC50 (Vero E6 cells) [µM]
CCn1ccc(-c2cc(-c3cnn(C)c3)cc([C@@H](C)NC(=O)c3ccccc3CCC(=O)NNS(=O)(=O)CCl)c2)n1 [Example 10, (R)-2-(3-(2-((Chloromethyl)sulfonyl)hydrazineyl)-3-oxopropyl)-N-(1-(3-(1-ethyl-1H-pyrazol-3-yl)-5-(1-methyl-1H-pyrazol-4-yl)phenyl)ethyl)benzamide] | > 5 | > 250 | – | –
CCn1ccc(-c2cc(-c3cnn(C)c3)cc([C@@H](C)NC(=O)c3ccccc3CCC(=O)NNS(=O)(=O)C(Cl)Cl)c2)n1 [Example 11, (R)-2-(3-(2-((dichloromethyl)sulfonyl)hydrazineyl)-3-oxopropyl)-N-(1-(3-(1-Ethyl-1H-pyrazol-3-yl)-5-(1-methyl-1H-pyrazol-4-yl)phenyl)ethyl)benzamide] | > 5 | > 250 | – | –
CCn1ccc(-c2cc(-c3cnn(C)c3)cc([C@@H](C)NC(=O)c3ccccc3CCC(=O)NNC(=O)/C=C/C(=O)N(C)C)c2)n1 [Example 12, (R,E)-2-(3-(2-(4-(Dimethylamino)-4-oxobut-2-enoyl)hydrazineyl)-3-oxopropyl)-N-(1-(3-(1-ethyl-1H-pyrazol-3-yl)-5-(1-methyl-1H-pyrazol-4-yl)phenyl)ethyl)benzamide] | < 1 | > 500 | – | –
CCn1ccc(-c2cc(-c3cnn(C)c3)cc([C@@H](C)NC(=O)c3ccccc3CCC(=O)NNC(=O)/C=C/C(=O)NC3CC3)c2)n1 [Example 13, (R,E)-2-(3-(2-(4-(Cyclopropylamino)-4-oxobut-2-enoyl)hydrazineyl)-3-oxopropyl)-N-(1-(3-(1-ethyl-1H-pyrazol-3-yl)-5-(1-methyl-1H-pyrazol-4-yl)phenyl)ethyl)benzamide] | < 1 | > 250 | – | –
CCn1ccc(-c2cc(-c3cnn(C)c3)cc([C@@H](C)NC(=O)c3ccccc3CCC(=O)NNC(=O)/C=C/C(=O)NC3CC(F)(F)C3)c2)n1 [Example 14, (R,E)-2-(3-(2-(4-((3,3-Difluorocyclobutyl)amino)-4-oxobut-2-enoyl)hydrazineyl)-3-oxopropyl)-N-(1-(3-(1-ethyl-1H-pyrazol-3-yl)-5-(1-methyl-1H-pyrazol-4-yl)phenyl)ethyl)benzamide] | < 1 | > 250 | – | –
CCn1ccc(-c2cc(-c3cnn(C)c3)cc([C@@H](C)NC(=O)c3ccccc3CCC(=O)NNC(=O)CCl)c2)n1 [Example 15, (R)-2-(3-(2-(2-Chloroacetyl)hydrazineyl)-3-oxopropyl)-N-(1-(3-(1-ethyl-1H-pyrazol-3-yl)-5-(1-methyl-1H-pyrazol-4-yl)phenyl)ethyl)benzamide] | < 1 | > 250 | – | –
C=C(F)C(=O)NNC(=O)CCc1ccccc1C(=O)N[C@H](C)c1cc(-c2cnn(C)c2)cc(-c2ccn(CC)n2)c1 [Example 16, (R)-N-(1-(3-(1-Ethyl-1H-pyrazol-3-yl)-5-(1-methyl-1H-pyrazol-4-yl)phenyl)ethyl)-2-(3-(2-(2-fluoroacryloyl)hydrazineyl)-3-oxopropyl)benzamide] | > 5 | > 250 | – | –
C=C(Cl)C(=O)NNC(=O)CCc1ccccc1C(=O)N[C@H](C)c1cc(-c2cnn(C)c2)cc(-c2ccn(CC)n2)c1 [Example 17, (R)-2-(3-(2-(2-Chloroacryloyl)hydrazineyl)-3-oxopropyl)-N-(1-(3-(1-ethyl-1H-pyrazol-3-yl)-5-(1-methyl-1H-pyrazol-4-yl)phenyl)ethyl)] | 1 to 5 | 33 | – | –
CCn1ccc(-c2cc(-c3cnn(C)c3)cc([C@@H](C)NC(=O)c3ccccc3CCC(=O)NNC(=O)/C=C/C(=O)NC34CC(C3)C4)c2)n1 [Example 20, (R,E)-2-(3-(2-(4-(Bicyclo[1.1.1]pentan-1-ylamino)-4-oxobut-2-enoyl)hydrazineyl)-3-oxopropyl)-N-(1-(3-(1-ethyl-1H-pyrazol-3-yl)-5-(1-methyl-1 H-pyrazol-4-yl)phenyl)ethyl)benzamide] | < 1 | > 250 | – | –
CCn1ccc(-c2cc(-c3cnn(C)c3)cc([C@@H](C)NC(=O)c3ccccc3CCC(=O)NNC(=O)/C=C/C(=O)N3CC(F)C3)c2)n1 [Example 21, (R,E)-N-(1-(3-(1-ethyl-1H-pyrazol-3-yl)-5-(1-methyl-1H-pyrazol-4-yl)phenyl)ethyl)-2-(3-(2-(4-(3-fluoroazetidin-1-yl)-4-oxobut-2-enoyl)hydrazineyl)-3-oxopropyl)benzamide] | < 1 | > 500 | – | –
CCn1ccc(-c2cc(-c3cnn(C)c3)cc([C@@H](C)NC(=O)c3ccccc3CCC(=O)NNC(=O)/C=C/C(=O)N3CCC3)c2)n1 [Example 22, (R,E)-2-(3-(2-(4-(azetidin-1-yl)-4-oxobut-2-enoyl) hydrazineyl)-3-oxopropyl)-N-(1-(3-(1-ethyl-1H-pyrazol-3-yl)-5-(1-methyl-1H-pyrazol-4-yl)phenyl)ethyl)benzamide] | < 1 | > 250 | – | –
CCOC(=O)/C=C/C(=O)NCC(=O)NCc1ccccc1C(=O)NC1(c2cc(-c3cnn(C)c3)cc(-c3ccn(CC)n3)c2)CC1 [Example 23, ethyl (E)-4-((2-((2-((1-(3-(1-ethyl-1H-pyrazol-3-yl)-5-(1-methyl-1H-pyrazol-4-yl)phenyl)cyclopropyl)carbamoyl)benzyl)amino)-2-oxoethyl)amino)-4-oxobut-2-enoate] | 1 to 5 | > 500 | – | –
CCn1ccc(-c2cc(-c3cnn(C)c3)cc(C3(NC(=O)c4ccccc4CNC(=O)CNC(=O)/C=C/C(=O)N4CC(F)(F)C4)CC3)c2)n1 [Example 24, (E)-2-((2-(4-(3,3-difluoroazetidin-1-yl)-4-oxobut-2-enamido)-acetamido)methyl)-N-(1-(3-(1-ethyl-1H-pyrazol-3-yl)-5-(1-methyl-1H-pyrazol-4-yl)phenyl)cyclopropyl)benzamide] | 1 to 5 | > 500 | – | –
CCn1ccc(-c2cc(-c3cnn(C)c3)cc([C@@H](C)NC(=O)c3ccccc3CNC(=O)CNC(=O)/C=C/C(=O)N3CC(F)(F)C3)c2)n1 [Example 25, (R,E)-2-((2-(4-(3,3-difluoroazetidin-1-yl)-4-oxobut-2-enamido)acetamido)methyl)-N-(1-(3-(1-ethyl-1H-pyrazol-3-yl)-5-(1-methyl-1H-pyrazol-4-yl)phenyl)ethyl)benzamide] | < 1 | > 500 | – | –
CCn1ccc(-c2cc(-c3cnn(C)c3)cc([C@@H](C)NC(=O)c3ccccc3CCC(=O)NNC(=O)C34CC(C3)C4)c2)n1 [Example 27, (R)-2-(3-(2-(bicyclo[1.1.1]pentane-1-carbonyl)hydrazineyl)-3-oxopropyl)-N-(1-(3-(1-ethyl-1H-pyrazol-3-yl)-5-(1-methyl-1H-pyrazol-4-yl)phenyl)ethyl)benzamide] | > 5 | > 250 | – | –
CCn1ccc(-c2cc(-c3cnn(C)c3)cc([C@@H](C)NC(=O)c3ccccc3CCC(=O)NCC(=O)CF)c2)n1 [Example 28, (R)-N-(1-(3-(1-ethyl-1H-pyrazol-3-yl)-5-(1-methyl-1H-pyrazol-4-yl)phenyl)ethyl)-2-(3-((3-fluoro-2-oxopropyl)amino)-3-oxopropyl)benzamide] | > 5 | > 250 | – | –
C=CC(=O)NCC(=O)NCc1ccccc1C(=O)N[C@H](C)c1cc(-c2cnn(C)c2)cc(-c2ccn(C)n2)c1 [Example 29, (R)-2-((2-acrylamidoacetamido)methyl)-N-(1-(3-(1-methyl-1H-pyrazol-3-yl)-5-(1-methyl-1H-pyrazol-4-yl)phenyl)ethyl)benzamide] | > 5 | > 500 | – | –
C=CS(=O)(=O)NCC(=O)NCc1ccccc1C(=O)N[C@H](C)c1cc(-c2cnn(C)c2)cc(-c2ccn(C)n2)c1 [Example 30, (R)-N-(1-(3-(1-methyl-1H-pyrazol-3-yl)-5-(1-methyl-1H-pyrazol-4-yl)phenyl)ethyl)-2-((2-(vinylsulfonamido)acetamido)methyl)benzamide] | < 1 | > 250 | – | –
C[C@@H](NC(=O)c1ccccc1CNC(=O)CNC(=O)CC#N)c1cc(-c2cnn(C)c2)cc(-c2ccn(C)n2)c1 [Example 31, (R)-2-((2-(2-cyanoacetamido)acetamido)methyl)-N-(1-(3-(1-methyl-1H-pyrazol-3-yl)-5-(1-methyl-1H-pyrazol-4-yl)phenyl)ethyl)benzamide] | > 5 | > 500 | – | –
Cc1ccc(N)cc1C(=O)N[C@H](C)c1cccc2ccccc12 [GRL0617] | – | – | ~20 | –
(R)-2-(3-((2-Cyanoethyl)amino)-3-oxopropyl)-N-(1-(3-(1-ethyl-1H-pyrazol-3-yl)-5-(1-methyl-1H-pyrazol-4-yl)phenyl)ethyl)benzamide [Example 1] | > 5 | – | – | 146
